From publication PMC11092066, “Novel analogues of a nonnucleoside SARS-CoV-2 RdRp inhibitor as potential antivirotics” (Beilstein Journal of Organic Chemistry, 2024)

Molecular target: SARS-CoV-2 RdRp (nsp12, nsp7, nsp8 polymerase complex) (Severe acute respiratory syndrome coronavirus 2, UniProt P0DTD1)
Assay: biochemical
Type: biochemical
Settings: for BEI (binding efficiency index): calculated as pIC50 [mol/L]/MW [kDa] from SARS-CoV-2 RdRp IC50; for IC50: recombinant RdRp: 1 μM nsp12, 3 μM nsp7, 3 μM nsp8, 0.5 μM template/primer RNA, 10 μM NTPs, 1 h at 30 °C, GraphPad fit

Row | Structure (SMILES) | BEI (binding efficiency index) | IC50 | inhibitory activity against SARS-CoV-2 RdRp (in words) (primer extension polymerase assay)
1 | O=C(N[C@@H](Cc1ccc(O)cc1)C(=O)O)c1cc(-c2ccccc2)c(=O)n2c1sc1ccc(OC3CCCCC3)cc12 [compound 1, HeE1-2Tyr, reference compound] | 7.8 |  | 
2 | O=C(N[C@@H](Cc1ccc(O)cc1)C(=O)O)c1cc(-c2ccccc2)c(=O)n2ccsc12 [4a] | 9.3 | 88.1 µM | 
3 | Cc1nn2c(=O)c(-c3ccccc3)cc(C(=O)N[C@@H](Cc3ccc(O)cc3)C(=O)O)c2s1 [4b] | 8.8 | 113 µM | 
4 | O=C(N[C@@H](Cc1ccc(O)cc1)C(=O)O)c1cc(-c2ccccc2)c(=O)n2c1oc1ccc(OC3CCCCC3)cc12 [compound 2] |  |  | devoid of any activity
5 | Cn1cc(C(=O)N[C@@H](Cc2ccc(O)cc2)C(=O)O)cc(-c2cccnc2)c1=O [3b] | 9.4 | 204 µM | 
6 | Cn1cc(C(=O)N[C@@H](Cc2ccc(O)cc2)C(=O)O)cc(-c2ccsc2)c1=O [3c] | 10.2 | 88.1 µM | 
7 | O=C(N[C@@H](Cc1ccc(O)cc1)C(=O)O)c1cc(-c2ccccc2)c(=O)n(-c2cc(OC3CCCCC3)ccc2O)c1O [compound 16] | 6.7 | 114 µM | 
8 | Cn1cc(C(=O)N[C@@H](Cc2ccc(O)cc2)C(=O)O)cc(-c2ccccc2)c1=O [3a] | 9.9 |  | 
